# Source: PubChem BioAssay AID2060609 (Molecular Pharmacology Branch, DTP, NCI, 2025)
# pIC50: −log10 of the molar value.
# System: 855422-203-R-J1-PDC complex spheroids, viability
# Assay: Anticancer human tumor 855422-203-R-J1-PDC patient-derived bladder carcinoma cell line growth inhibition [CLK]
# Conditions: for pIC50: curve of first compound; for viability, T/C: stronger effect = lower value
# Procedure, shortened: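 Patient-derived tumor cells grown as complex spheroids with HUVEC endothelial cells and mesenchymal stem cells, treated with drug combinations. Concentrations descend in half-log steps from near clinical Cmax, or from 10 microM if Cmax unknown.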
# [1] = second compound 0.0316 µM, first compound 0.0316 µM
# [2] = second compound 0.0316 µM, first compound 0.1 µM
# [3] = second compound 0.0316 µM, first compound 0.316 µM
# [4] = second compound 0.0316 µM, first compound 1 µM
# [5] = second compound 0.0316 µM, first compound 3.16 µM
# [6] = second compound 0.0316 µM, first compound 10 µM
# [7] = second compound 0.1 µM, first compound 0.0316 µM
# [8] = second compound 0.1 µM, first compound 0.1 µM
# [9] = second compound 0.1 µM, first compound 0.316 µM
# [10] = second compound 0.1 µM, first compound 1 µM
# [11] = second compound 0.1 µM, first compound 3.16 µM
# [12] = second compound 0.1 µM, first compound 10 µM
# [13] = second compound 0.316 µM, first compound 0.0316 µM
# [14] = second compound 0.316 µM, first compound 0.1 µM
# [15] = second compound 0.316 µM, first compound 0.316 µM
# [16] = second compound 0.316 µM, first compound 1 µM
# [17] = second compound 0.316 µM, first compound 3.16 µM
# [18] = second compound 0.316 µM, first compound 10 µM
# [19] = second compound 1 µM, first compound 0.0316 µM
# [20] = second compound 1 µM, first compound 0.1 µM
# [21] = second compound 1 µM, first compound 0.316 µM
# [22] = second compound 1 µM, first compound 1 µM
# [23] = second compound 1 µM, first compound 3.16 µM
# [24] = second compound 1 µM, first compound 10 µM
# [25] = second compound 3.16 µM, first compound 0.0316 µM
# [26] = second compound 3.16 µM, first compound 0.1 µM
# [27] = second compound 3.16 µM, first compound 0.316 µM
# [28] = second compound 3.16 µM, first compound 1 µM
# [29] = second compound 3.16 µM, first compound 3.16 µM
# [30] = second compound 3.16 µM, first compound 10 µM
# [31] = second compound 10 µM, first compound 0.0316 µM
# [32] = second compound 10 µM, first compound 0.1 µM
# [33] = second compound 10 µM, first compound 0.316 µM
# [34] = second compound 10 µM, first compound 1 µM
# [35] = second compound 10 µM, first compound 3.16 µM
# [36] = second compound 10 µM, first compound 10 µM
# 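Note: spheroids exposed to drugs for seven days before readout.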
# 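Throughout, for viability, T/C: 100% = DMSO vehicle control wells.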
smiles,measurement,setting,value
COc1ccc([C@@H](O)c2cc(-c3ncnc4cc(N5CCOCC5)ccc34)c(F)cc2Cl)nn1 + CNC(=O)c1ccc(Nc2nc(OC3CCCC3)c3c(-c4ccc5nc(C)oc5c4)c[nH]c3n2)c(OC)c1,pIC50,second compound 0.0316 µM,5.24
same,pIC50,second compound 0.1 µM,5.84
same,pIC50,second compound 0.316 µM,> 7.50
same,pIC50,second compound 1 µM,> 7.50
same,pIC50,second compound 3.16 µM,> 7.50
same,pIC50,second compound 10 µM,> 7.50
same,"viability, T/C",[1],78.5%
same,"viability, T/C",[2],118%
same,"viability, T/C",[3],95.2%
same,"viability, T/C",[4],82.7%
same,"viability, T/C",[5],71.8%
same,"viability, T/C",[6],31.1%
same,"viability, T/C",[7],55.8%
same,"viability, T/C",[8],55.2%
same,"viability, T/C",[9],44.4%
same,"viability, T/C",[10],47.9%
same,"viability, T/C",[11],48.9%
same,"viability, T/C",[12],22.9%
same,"viability, T/C",[13],24%
same,"viability, T/C",[14],23.9%
same,"viability, T/C",[15],16.8%
same,"viability, T/C",[16],19.2%
same,"viability, T/C",[17],16.3%
same,"viability, T/C",[18],12.3%
same,"viability, T/C",[19],23.3%
same,"viability, T/C",[20],24.6%
same,"viability, T/C",[21],18.3%
same,"viability, T/C",[22],17.4%
same,"viability, T/C",[23],19.5%
same,"viability, T/C",[24],12.1%
same,"viability, T/C",[25],17.7%
same,"viability, T/C",[26],17.7%
same,"viability, T/C",[27],16.3%
same,"viability, T/C",[28],22.1%
same,"viability, T/C",[29],16.6%
same,"viability, T/C",[30],12.4%
same,"viability, T/C",[31],22.1%
same,"viability, T/C",[32],20.9%
same,"viability, T/C",[33],25.1%
same,"viability, T/C",[34],18.4%
same,"viability, T/C",[35],14.4%
same,"viability, T/C",[36],8.91%
COc1cccc2c1C(=O)c1c(O)c3c(c(O)c1C2=O)CC(O)(C(=O)CO)CC3OC1CC(N)C(O)C(C)O1 (centres undefined) + CNC(=O)c1ccc(Nc2nc(OC3CCCC3)c3c(-c4ccc5nc(C)oc5c4)c[nH]c3n2)c(OC)c1,pIC50,second compound 0.0316 µM,> 7.50
same,pIC50,second compound 0.1 µM,> 7.50
same,pIC50,second compound 0.316 µM,> 7.50
same,pIC50,second compound 1 µM,> 7.50
same,pIC50,second compound 3.16 µM,> 7.50
same,pIC50,second compound 10 µM,> 7.50
same,"viability, T/C",[1],10.3%
same,"viability, T/C",[2],2.45%
same,"viability, T/C",[3],0.72%
same,"viability, T/C",[4],0.22%
same,"viability, T/C",[5],0.45%
same,"viability, T/C",[6],0.6%
same,"viability, T/C",[7],11%
same,"viability, T/C",[8],1.62%
same,"viability, T/C",[9],1.02%
same,"viability, T/C",[10],0.3%
same,"viability, T/C",[11],0.4%
same,"viability, T/C",[12],0.51%
same,"viability, T/C",[13],9.64%
same,"viability, T/C",[14],1.3%
same,"viability, T/C",[15],0.46%
same,"viability, T/C",[16],0.22%
same,"viability, T/C",[17],0.45%
same,"viability, T/C",[18],0.55%
same,"viability, T/C",[19],7.4%
same,"viability, T/C",[20],1.13%
same,"viability, T/C",[21],0.24%
same,"viability, T/C",[22],0.56%
same,"viability, T/C",[23],0.58%
same,"viability, T/C",[24],0.82%
same,"viability, T/C",[25],9.03%
same,"viability, T/C",[26],0.94%
same,"viability, T/C",[27],0.2%
same,"viability, T/C",[28],0.62%
same,"viability, T/C",[29],0.98%
same,"viability, T/C",[30],0.75%
same,"viability, T/C",[31],6.1%
same,"viability, T/C",[32],0.68%
same,"viability, T/C",[33],0.35%
same,"viability, T/C",[34],0.72%
same,"viability, T/C",[35],0.63%
same,"viability, T/C",[36],1.3%
